# Source: paper PMC11620503 (Antimicrobial Agents and Chemotherapy, 2024)
# Read-outs that look alike come from different tables or passages of the source.
# Key:
# [1] = test system: Staphylococcus aureus ATCC 6538P/methicillin-sensitive; assay: MIC, reference strains of aerobic bacteria; format: cell-based; conditions: ATCC6538P
# [2] = test system: Staphylococcus aureus KUB4690/methicillin-resistant; assay: MIC, reference strains of aerobic bacteria; format: cell-based
# [3] = test system: Staphylococcus epidermidis KUB4871/methicillin-sensitive; assay: MIC, reference strains of aerobic bacteria; format: cell-based
# [4] = test system: Staphylococcus epidermidis KUB4862/methicillin-resistant; assay: MIC, reference strains of aerobic bacteria; format: cell-based
# [5] = test system: Staphylococcus lugdunensis KUB4804; assay: MIC, reference strains of aerobic bacteria; format: cell-based
# [6] = test system: Staphylococcus saprophyticus KUB4845; assay: MIC, reference strains of aerobic bacteria; format: cell-based
# [7] = test system: Enterococcus faecium NCTC 12204; assay: MIC, reference strains of aerobic bacteria; format: cell-based; conditions: NCTC12204
# [8] = test system: Streptococcus agalactiae ATCC 13813; assay: MIC, reference strains of aerobic bacteria; format: cell-based; conditions: ATCC13813
# [9] = test system: Streptococcus mutans GTC218; assay: MIC, reference strains of aerobic bacteria; format: cell-based
# [10] = test system: Streptococcus porcinus ATCC 12391; assay: MIC, reference strains of aerobic bacteria; format: cell-based; conditions: ATCC12391
# [11] = test system: Streptococcus pseudoporcinus ATCC BAA-1381; assay: MIC, reference strains of aerobic bacteria; format: cell-based; conditions: ATCCBAA1381
# [12] = test system: Streptococcus salivarius GTC215; assay: MIC, reference strains of aerobic bacteria; format: cell-based
# [13] = test system: Escherichia coli ATCC 25922; assay: MIC, reference strains of aerobic bacteria; format: cell-based; conditions: ATCC25922
# [14] = test system: Klebsiella pneumoniae ATCC 700603; assay: MIC, reference strains of aerobic bacteria; format: cell-based; conditions: ATCC700603
# [15] = test system: Klebsiella oxytoca KUB4313; assay: MIC, reference strains of aerobic bacteria; format: cell-based
# [16] = test system: Acinetobacter calcoaceticus NBRC12552 (ATCC 14987); assay: MIC, reference strains of aerobic bacteria; format: cell-based
# [17] = test system: Stenotrophomonas maltophilia KUB3619; assay: MIC, reference strains of aerobic bacteria; format: cell-based
# [18] = test system: Citrobacter freundii ATCC 8090; assay: MIC, reference strains of aerobic bacteria; format: cell-based; conditions: ATCC8090
# [19] = test system: Providencia rettgeri ATCC 9250; assay: MIC, reference strains of aerobic bacteria; format: cell-based; conditions: ATCC9250
# [20] = test system: Enterobacter cloacae NBRC 13535 (ATCC 13047); assay: MIC, reference strains of aerobic bacteria; format: cell-based
# [21] = test system: Serratia marcescens NBRC 12648 (ATCC 14756); assay: MIC, reference strains of aerobic bacteria; format: cell-based
# [22] = cited from earlier work
# [23] = test system: 207 Enterobacterales including carbapenem-resistant isolates; assay: MIC, broth microdilution; format: cell-based
# [24] = test system: serine-carbapenemase-producing isolates (Enterobacterales); assay: MIC, broth microdilution; format: cell-based; conditions: for MIC50 / MIC90: fixed concentration (μg/mL) in label
# [25] = test system: MBL-producing isolates (Enterobacterales); assay: MIC, broth microdilution; format: cell-based; conditions: for MIC50 / MIC90: fixed concentration (μg/mL) in label; for MIC50: read-out: MIC50; for MIC90: read-out: MIC90
# 96 P. aeruginosa = assay: MIC, broth microdilution; format: cell-based, Pseudomonas aeruginosa
# [26] = test system: E. coli CDC-119 (NDM-1), PBP3 mutations; assay: MIC, broth microdilution; format: cell-based; conditions: Escherichia coli
# [27] = test system: E. coli CDC-137 (NDM-6), PBP3 mutations; assay: MIC, broth microdilution; format: cell-based; conditions: Escherichia coli, fixed BLI concentration (μg/mL) in parentheses in label
# [28] = test system: E. coli CDC-149 (NDM-7), PBP3 mutations; assay: MIC, broth microdilution; format: cell-based; conditions: Escherichia coli
# [29] = test system: E. coli CDC-435 (NDM-1), PBP3 mutations; assay: MIC, broth microdilution; format: cell-based; conditions: Escherichia coli, fixed BLI concentration (μg/mL) in parentheses in label
# [30] = test system: MEM-nonsusceptible Enterobacterales with serine-carbapenemases; assay: MIC, broth microdilution; format: cell-based; conditions: for CLSI MIC interpretation I (intermediate) / CLSI MIC interpretation R (resistant) / CLSI MIC interpretation S (susceptible): CLSI breakpoints, marked c: breakpoints for β-lactam alone; for MIC50 / MIC90: fixed concentration (μg/mL) in label
# [31] = test system: MEM-nonsusceptible Enterobacterales with metallo-carbapenemases; assay: MIC, broth microdilution; format: cell-based; conditions: for CLSI MIC interpretation I (intermediate) / CLSI MIC interpretation R (resistant) / CLSI MIC interpretation S (susceptible): CLSI breakpoints, marked c: breakpoints for β-lactam alone; for MIC50 / MIC90: fixed concentration (μg/mL) in label
# [32] = All Enterobacterales (207), cefiderocol 205 isolates, CLSI breakpoints, marked c: breakpoints for β-lactam alone, tigecycline: FDA breakpoints
# [33] = All Enterobacterales (207), cefiderocol 205 isolates, fixed concentration (μg/mL) in label
# [34] = Enterobacterales with serine-carbapenemases (61), CDC AR Bank, CLSI breakpoints, marked c: breakpoints for β-lactam alone
# [35] = Enterobacterales with serine-carbapenemases (61), CDC AR Bank
# [36] = Enterobacterales with serine-carbapenemases (80), CLSI breakpoints, marked c: breakpoints for β-lactam alone, tigecycline: FDA breakpoints
# [37] = Enterobacterales with metallo-carbapenemases (47), CDC AR Bank, CLSI breakpoints, marked c: breakpoints for β-lactam alone
# [38] = Enterobacterales with metallo-carbapenemases (47), CDC AR Bank
# [39] = Enterobacterales with metallo-carbapenemases (74), cefiderocol 73 isolates, CLSI breakpoints, marked c: breakpoints for β-lactam alone, tigecycline: FDA breakpoints
# [40] = Enterobacterales with metallo-carbapenemases (74), cefiderocol 73 isolates
# [41] = Pseudomonas aeruginosa (96), CLSI breakpoints, marked c: breakpoints for β-lactam alone
# [42] = MEM-nonsusceptible Enterobacterales with serine-carbapenemases (42), CDC AR Bank
# [43] = MEM-nonsusceptible Enterobacterales with serine-carbapenemases (58), tigecycline: FDA breakpoints
# [44] = MEM-nonsusceptible Enterobacterales with metallo-carbapenemases (41), CDC AR Bank
# [45] = MEM-nonsusceptible Enterobacterales with metallo-carbapenemases (55), cefiderocol 54 isolates, tigecycline: FDA breakpoints
structure (smiles),measurement,setting,value
"N[C@@H](C(=O)N1CC(Oc2ccc3c(c2C(=O)O)OB(O)CC3)C1)c1c[nH]cn1 [KSP-1007, 7-({1-[(2R)-2-amino-2-(1H-imidazol-4-yl)acetyl]azetidin-3-yl}oxy)-2-hydroxy-3,4-dihydro-2H-1,2-benzoxaborinine-8-carboxylic acid]",MIC,[1],8 µg/mL
same,MIC,[2],> 128 µg/mL
same,MIC,[3],4 µg/mL
same,MIC,[4],> 128 µg/mL
same,MIC,[5],4 µg/mL
same,MIC,[6],4 µg/mL
same,MIC,[7],> 128 µg/mL
same,MIC,[8],4 µg/mL
same,MIC,[9],8 µg/mL
same,MIC,[10],2 µg/mL
same,MIC,[11],1 µg/mL
same,MIC,[12],0.25 µg/mL
same,MIC,[13],128 µg/mL
same,MIC,[14],> 128 µg/mL
same,MIC,[15],128 µg/mL
same,MIC,[16],> 128 µg/mL
same,MIC,[17],> 128 µg/mL
same,MIC,[18],128 µg/mL
same,MIC,[19],> 128 µg/mL
same,MIC,[20],> 128 µg/mL
same,MIC,[21],> 128 µg/mL
same,human plasma protein binding rate,[22],about 75%
"C[C@@H](O)[C@H]1C(=O)N2C(C(=O)O)=C(S[C@@H]3CN[C@H](C(=O)N(C)C)C3)[C@H](C)[C@H]12 [MEM, meropenem]",CLSI MIC interpretation I (intermediate),[23]; [32],11.1%
same,CLSI MIC interpretation R (resistant),[23]; [32],50.2%
same,CLSI MIC interpretation S (susceptible),[23]; [32],38.6%
same,MIC50,[23]; [33],4 µg/mL
same,MIC90,[23]; [33],32 µg/mL
same,MIC50,[23]; read-out: MIC50,4 µg/mL
same,MIC90,[23]; read-out: MIC90,32 µg/mL
same,CLSI MIC interpretation R (resistant),[24]; [34],57.4%
same,CLSI MIC interpretation S (susceptible),[24]; [34],31.1%
same,MIC50,[24]; [35],4 µg/mL
same,MIC90,[24]; [35],32 µg/mL
same,CLSI MIC interpretation I (intermediate),[24]; [36],11.3%
same,CLSI MIC interpretation R (resistant),[24]; [36],61.3%
same,CLSI MIC interpretation S (susceptible),[24]; [36],27.5%
same,MIC50,"[24]; Enterobacterales with serine-carbapenemases (80), read-out: MIC50",4 µg/mL
same,MIC90,"[24]; Enterobacterales with serine-carbapenemases (80), read-out: MIC90",32 µg/mL
same,CLSI MIC interpretation I (intermediate),[25]; [37],10.6%
same,CLSI MIC interpretation R (resistant),[25]; [37],76.6%
same,MIC50,[25]; [38],16 µg/mL
same,MIC90,[25]; [38],> 32 µg/mL
same,CLSI MIC interpretation I (intermediate),[25]; [39],9.5%
same,CLSI MIC interpretation R (resistant),[25]; [39],64.9%
same,CLSI MIC interpretation S (susceptible),[25]; [39],25.7%
same,MIC50,[25]; [40],8 µg/mL
same,MIC90,[25]; [40],> 32 µg/mL
same,CLSI MIC interpretation I (intermediate),96 P. aeruginosa; [41],11.5%
same,CLSI MIC interpretation R (resistant),96 P. aeruginosa; [41],67.7%
same,CLSI MIC interpretation S (susceptible),96 P. aeruginosa; [41],20.8%
same,MIC50,"96 P. aeruginosa; Pseudomonas aeruginosa (96), fixed concentration (μg/mL) in label",16 µg/mL
same,MIC50,"96 P. aeruginosa; Pseudomonas aeruginosa, read-out: MIC50",16 µg/mL
same,MIC,[26],32 µg/mL
same,MIC,[27],32 µg/mL
same,MIC,[28],8 µg/mL
same,MIC,[29],32 µg/mL
same,MIC,[1],0.06 µg/mL
same,MIC,[2],32 µg/mL
same,MIC,[3],0.06 µg/mL
same,MIC,[4],4 µg/mL
same,MIC,[5],0.12 µg/mL
same,MIC,[6],0.12 µg/mL
same,MIC,[7],32 µg/mL
same,MIC,[8],≤ 0.03 µg/mL
same,MIC,[9],≤ 0.03 µg/mL
same,MIC,[10],≤ 0.03 µg/mL
same,MIC,[11],≤ 0.03 µg/mL
same,MIC,[12],≤ 0.03 µg/mL
same,MIC,[13],≤ 0.03 µg/mL
same,MIC,[14],≤ 0.03 µg/mL
same,MIC,[15],≤ 0.03 µg/mL
same,MIC,[16],0.12 µg/mL
same,MIC,[17],> 32 µg/mL
same,MIC,[18],≤ 0.03 µg/mL
same,MIC,[19],0.06 µg/mL
same,MIC,[20],0.12 µg/mL
same,MIC,[21],≤ 0.03 µg/mL
same,CLSI MIC interpretation I (intermediate),[30]; [42],16.7%
same,CLSI MIC interpretation R (resistant),[30]; [42],83.3%
same,CLSI MIC interpretation S (susceptible),[30]; [42],0%
same,MIC50,[30]; [42],8 µg/mL
same,MIC90,[30]; [42],32 µg/mL
same,CLSI MIC interpretation I (intermediate),[30]; [43],15.5%
same,CLSI MIC interpretation R (resistant),[30]; [43],84.5%
same,CLSI MIC interpretation S (susceptible),[30]; [43],0%
same,MIC50,"[30]; MEM-nonsusceptible Enterobacterales with serine-carbapenemases (58), read-out: MIC50",8 µg/mL
same,MIC90,"[30]; MEM-nonsusceptible Enterobacterales with serine-carbapenemases (58), read-out: MIC90",32 µg/mL
same,CLSI MIC interpretation I (intermediate),[31]; [44],12.2%
same,CLSI MIC interpretation R (resistant),[31]; [44],87.8%
same,CLSI MIC interpretation S (susceptible),[31]; [44],0%
same,MIC50,[31]; [44],16 µg/mL
same,MIC90,[31]; [44],>32 µg/mL
same,CLSI MIC interpretation I (intermediate),[31]; [45],12.7%
same,CLSI MIC interpretation R (resistant),[31]; [45],87.3%
same,CLSI MIC interpretation S (susceptible),[31]; [45],0%
same,MIC50,"[31]; MEM-nonsusceptible Enterobacterales with metallo-carbapenemases (55), cefiderocol 54 isolates, read-out: MIC50",16 µg/mL
same,MIC90,"[31]; MEM-nonsusceptible Enterobacterales with metallo-carbapenemases (55), cefiderocol 54 isolates, read-out: MIC90",> 32 µg/mL
same,human protein binding,[22],2%
